Key:
Formalin test on rats = assay type: in vivo, rat
Method: IIa. Formalin Test on Rats:
The formalin test (Dubuisson, D. and Dennis, S. G., 1977, Pain, 4, 161-174) represents a model for acute as well as chronic pain. By a single formalin injection into the dorsal side of a rear paw a biphase nociceptive reaction is inducted in free-moving test animals that is detected by observation of three clearly distinguishable behavior patterns. The reaction is two-phase: phase I=immediate reaction (duration up to 10 min.; paw shaking, licking), phase 2=late reaction (after a resting phase; likewise paw shaking, licking; duration up to 60 min.). The first phase reflects a direct stimulation of the peripheral nocisensors with high spinal nociceptive input or glutamate release (acute pain phase); the second phase reflects a spinal and peripheral hypersensitisation (chronic pain phase). The chronic pain component (phase 2) was evaluated in the studies presented here.
Formalin is applied subcutaneously in a volume of 50 μl and a concentration of 5% into the dorsal side of the right rear paw of each animal. […] The specific changes in behavior such as lifting and shaking of the paw, shifting weight of the animal as well as biting and licking reactions are observed and recorded in the observation period of 21 to 27 min. after the formalin injection. […]

mGluR5 receptor = biological target: T1, mGluR5 receptor (Sus scrofa, UniProt I3LUI7); assay: [3H]-MPEP mGluR5 receptor binding assay (pig brain homogenate); details: 5 nM [3H]-MPEP, read-out: IC50 mGluR5 Receptor (pig) [^3H]-MPEP Bond
T1 construct: 450 μg of protein from brain homogenate with 5 nM ^3[H]-MPEP; from tissue; host or cells: pig brain halves without medulla, cerebellum and pons
T1 sequence (I3LUI7 19-1212): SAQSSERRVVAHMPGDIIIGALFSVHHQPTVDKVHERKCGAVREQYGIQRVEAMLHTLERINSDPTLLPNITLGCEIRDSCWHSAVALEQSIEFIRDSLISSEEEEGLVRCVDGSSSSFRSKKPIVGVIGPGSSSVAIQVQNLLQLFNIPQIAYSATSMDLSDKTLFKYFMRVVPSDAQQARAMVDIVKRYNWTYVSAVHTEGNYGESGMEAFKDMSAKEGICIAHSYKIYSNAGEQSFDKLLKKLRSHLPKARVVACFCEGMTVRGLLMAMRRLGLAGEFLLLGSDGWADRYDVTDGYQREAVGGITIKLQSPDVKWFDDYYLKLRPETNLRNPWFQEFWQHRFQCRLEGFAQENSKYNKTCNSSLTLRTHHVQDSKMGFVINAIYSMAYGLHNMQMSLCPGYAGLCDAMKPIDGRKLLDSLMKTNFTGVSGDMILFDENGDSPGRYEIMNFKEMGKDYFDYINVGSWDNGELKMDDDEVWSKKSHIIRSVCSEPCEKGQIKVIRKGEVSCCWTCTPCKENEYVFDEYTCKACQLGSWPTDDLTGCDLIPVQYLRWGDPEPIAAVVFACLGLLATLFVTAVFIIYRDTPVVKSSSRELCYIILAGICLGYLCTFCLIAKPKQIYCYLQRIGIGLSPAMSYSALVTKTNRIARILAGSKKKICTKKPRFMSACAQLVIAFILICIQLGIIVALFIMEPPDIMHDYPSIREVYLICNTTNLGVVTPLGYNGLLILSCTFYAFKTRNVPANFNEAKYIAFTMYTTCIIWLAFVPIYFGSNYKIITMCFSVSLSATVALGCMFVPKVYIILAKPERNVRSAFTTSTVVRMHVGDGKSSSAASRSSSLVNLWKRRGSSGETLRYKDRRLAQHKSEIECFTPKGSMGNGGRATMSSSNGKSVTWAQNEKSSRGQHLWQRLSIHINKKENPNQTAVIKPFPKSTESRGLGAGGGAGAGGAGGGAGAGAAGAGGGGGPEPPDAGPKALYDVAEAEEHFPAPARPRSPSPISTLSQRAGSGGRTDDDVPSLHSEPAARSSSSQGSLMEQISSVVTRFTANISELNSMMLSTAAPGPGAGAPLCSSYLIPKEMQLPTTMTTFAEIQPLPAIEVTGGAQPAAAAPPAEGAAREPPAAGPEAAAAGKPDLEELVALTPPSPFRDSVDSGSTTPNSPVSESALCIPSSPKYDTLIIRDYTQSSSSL
Procedure, shortened: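 Compounds at 10 μM competed with 5 nM [3H]-MPEP for binding to pig brain membranes (450 μg protein) for 60 min at room temperature in pH 8.0 Hepes buffer. Bound radioactivity was collected on glass-fibre filters and read by β-counting, with 10 μM unlabelled MPEP giving non-specific binding.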

mGluR5 receptor (human) = biological target: T2, mGluR5 receptor (human) (Homo sapiens, UniProt P41594); assay: Functional Ca2+ influx assay in CHO-hmGluR5 cells (DHPG 10 μM, FLIPR); assay type: cell-based
T2 construct: host or cells: CHO
T2 sequence (P41594 21-1212): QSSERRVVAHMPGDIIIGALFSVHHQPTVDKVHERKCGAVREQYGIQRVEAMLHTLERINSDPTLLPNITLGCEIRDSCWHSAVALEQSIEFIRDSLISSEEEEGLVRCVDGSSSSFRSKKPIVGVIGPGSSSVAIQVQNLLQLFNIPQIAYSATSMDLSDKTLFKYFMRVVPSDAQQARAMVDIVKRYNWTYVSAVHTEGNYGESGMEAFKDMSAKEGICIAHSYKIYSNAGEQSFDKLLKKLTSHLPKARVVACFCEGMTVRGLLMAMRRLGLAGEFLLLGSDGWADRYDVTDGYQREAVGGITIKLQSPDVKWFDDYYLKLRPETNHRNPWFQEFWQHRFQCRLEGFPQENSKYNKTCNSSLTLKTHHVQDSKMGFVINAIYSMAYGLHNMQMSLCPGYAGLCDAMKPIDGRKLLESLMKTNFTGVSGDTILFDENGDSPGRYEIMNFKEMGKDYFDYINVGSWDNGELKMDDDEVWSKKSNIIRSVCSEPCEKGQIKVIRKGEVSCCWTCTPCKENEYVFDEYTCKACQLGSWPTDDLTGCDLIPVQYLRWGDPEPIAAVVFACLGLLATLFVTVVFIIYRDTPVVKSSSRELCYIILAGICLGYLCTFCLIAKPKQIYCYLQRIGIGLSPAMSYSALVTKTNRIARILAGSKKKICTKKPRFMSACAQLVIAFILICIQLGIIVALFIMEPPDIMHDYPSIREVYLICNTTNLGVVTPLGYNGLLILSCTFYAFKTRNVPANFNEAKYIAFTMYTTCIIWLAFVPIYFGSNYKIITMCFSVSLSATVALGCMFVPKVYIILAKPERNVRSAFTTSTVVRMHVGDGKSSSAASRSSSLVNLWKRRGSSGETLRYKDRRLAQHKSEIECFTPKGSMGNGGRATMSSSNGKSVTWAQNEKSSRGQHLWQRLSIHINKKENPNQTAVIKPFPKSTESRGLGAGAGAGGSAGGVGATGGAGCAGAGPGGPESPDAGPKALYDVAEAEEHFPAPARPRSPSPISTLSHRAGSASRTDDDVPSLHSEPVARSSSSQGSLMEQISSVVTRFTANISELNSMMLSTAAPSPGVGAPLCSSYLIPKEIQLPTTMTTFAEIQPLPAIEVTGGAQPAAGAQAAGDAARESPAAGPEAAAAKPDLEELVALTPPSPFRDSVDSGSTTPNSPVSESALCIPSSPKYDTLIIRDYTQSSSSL
Method: V. Functional Ca^2+ Influx Assay
20,000 CHO-hmGluR5 cells/well (Euroscreen, Gosselies, Belgium) are pipetted into 96-well plates (BD Biosciences, Heidelberg, Germany, Ref. 356640, clear bottom, 96-well, poly-D-lysine) and incubated overnight in HBSS buffer (Gibco 14025-050) with the following additions: 10% FCS (GIBCO, 10270-106) and doxycycline (BD Biosciences Clontech 631311 600 ng/ml).
For the functional study the cells were charged with 2 μM of Fluo-4 and 0.01% by vol. pluronic F127 (Molecular Probes Europe BV, Leiden, The Netherlands) in HBSS buffer (Hank's buffered saline solution, Gibco Invitrogen GmbH, Karlsruhe, Germany) with probenicide (Sigma P8761, […]) for 30 min. at 37° C.
The cells are then washed 3 times with washing buffer (HBSS buffer, Gibco No. 14025-050), with probenicide (Sigma P8761, 0.69 mg/ml) and then taken up with the same buffer ad 100 μl. After 15 min. the plates for determining the Ca^2+ measurements in the presence of DHPG ((S)-3,5-dihydroxyphenylglycine, Tocris Biotrend Chemikalien GmbH, Cologne, Germany, final DHPG concentration: 10 μM) and also in the presence or absence of test substances are transferred into a fluorometric imaging plate reader (FLIPR, Molecular Devices, Sunnyvale, Calif.).
The Ca^2+-dependent fluorescence is measured before and after the addition of test substances. The quantification occurs through the measurement of the highest fluorescence intensity over time. After the fluorescence base line has been recorded for 10 sec. 50 μl of test substance solution (different test substance concentrations in HBSS buffer with 1% DMSO and 0.02% Tween 20, Sigma) are added and the fluorescence signal is measured for 6 min. 50 μl of DHPG solution ((S)-3,5-dihydroxyphenylglycine, Tocris Biotrend Chemikalien GmbH, Cologne, Germany, final DHPG concentration: 10 μM) are then added and the influx of Ca^2+ is measured simultaneously for 60 sec. The final DMSO concentration amounts to 0.25% and the final Tween 20 content amounts to 0.005%. The data are analysed with Microsoft Excel and GraphPad Prism. The dose effect curves are calculated with non-linear regression and IC50 values determined. Each data point is determined 3 times and IC50 values are averaged from a minimum of 2 independent measurements. Ki values are calculated according to the following formula:
Ki=IC50/(1+(AGconc./EC50)).
AGconc.=10 μM; EC50 corresponds to the DHPG concentration necessary for the half-maximum influx of Ca^2+.

Row | Compound | Formalin Test (Formalin test on rats; 2.15 mg/kg i.v.) | IC50 (mGluR5 receptor) | Ki (mGluR5 receptor (human)) | Formalin Test (Formalin test on rats; 10 mg/kg i.v.)
1 | CC(C)(C)Nc1ncnc2ccc(-c3ccc(F)c(CN(C(=O)CC#N)C4CC4)c3)cc12 [Example 201, N-[5-(4-tert-butylamino-quinazolin-6-yl)-2-fluoro-benzyl]-2-cyano-N-cyclopropyl-acetamide] | 46% effect at | 30 nM | 2.7 nM | 
2 | CC(=O)N(Cc1cc(-c2ccc3ncnc(NC4CC4)c3c2)ccc1F)C1CC1 [Example 260, N-cyclopropyl-N-[5-(4-cyclopropylamino-quinazolin-6-yl)-2-fluoro-benzyl]-acetamide] |  | 30 nM | 0.8 nM | 80% effect at

From patent US20090069320A1, “Substituted 4-Amino-Quinazoline Compounds with Metabotropic Glutamate Receptor Regulating Activity and Uses Thereof” (Gruenenthal GmbH, priority 2006, published 2009)
